Legend:
hSTING R232H = molecular target: T1, hSTING R232H (Homo sapiens, UniProt Q86WV6); assay: THP1-Blue ISG hSTING KO reporter cells re-expressing hSTING R232H; format: cell-based; conditions: R232H variant cell line
T1 construct: expressed in transfected cells; host or cells: THP1-Blue ISG hSTING KO clone, retroviral MSCV-ires-GFP-Blasti
Description: (§1) Several single nucleotide polymorphisms have been identified in the human STING gene that may affect the response to cyclic dinucleotides. To determine the activity of compounds of the invention, THP1-Blue ISG reporter cell lines expressing the different human STING variants have been generated. To do so, the endogenous human STING was first deleted using the CRISPR/CAS9 system: THP1-Blue ISG cells were electroporated with ALL-IN-ONE CRISPR plasmids targeting the STING gene (purchased from Sigma encoding the gRNA and GFP as a reporter gene for successful transduction). GFP positive cells then were sorted 24 h post transfection and expanded. Cells were then dispersed in semisolid methocel medium to allow single cell clone isolations. Clones were then screened for cGAMP responsiveness using the Quanti-blue reporter assay. Non-responsive clones were subsequently analysed for STING loss by western blotting and sequencing of the STING locus.
(§2) For the overexpression of the human STING variants, a confirmed THP1-Blue ISG hSTING KO clone was transduced with individual retroviral plasmids (MSCV-ires-GFP-Blasti) encoding the allelic variants of hSTING (WT, HAQ, R232H, AQ and R293Q), respectively. Transduced cells were sorted for different levels of GFP fluorescence and STING allele expression was analysed by western blot.

hSTING AQ = molecular target: T2, hSTING AQ (Homo sapiens, UniProt Q86WV6, G230A/H232R/R293Q); assay: THP1-Blue ISG hSTING KO reporter cells re-expressing hSTING AQ; format: cell-based; conditions: AQ variant cell line
T2 construct: expressed in transfected cells; host or cells: THP1-Blue ISG hSTING KO clone, retroviral MSCV-ires-GFP-Blasti
T2 sequence (Q86WV6 whole entry G230A/H232R/R293Q): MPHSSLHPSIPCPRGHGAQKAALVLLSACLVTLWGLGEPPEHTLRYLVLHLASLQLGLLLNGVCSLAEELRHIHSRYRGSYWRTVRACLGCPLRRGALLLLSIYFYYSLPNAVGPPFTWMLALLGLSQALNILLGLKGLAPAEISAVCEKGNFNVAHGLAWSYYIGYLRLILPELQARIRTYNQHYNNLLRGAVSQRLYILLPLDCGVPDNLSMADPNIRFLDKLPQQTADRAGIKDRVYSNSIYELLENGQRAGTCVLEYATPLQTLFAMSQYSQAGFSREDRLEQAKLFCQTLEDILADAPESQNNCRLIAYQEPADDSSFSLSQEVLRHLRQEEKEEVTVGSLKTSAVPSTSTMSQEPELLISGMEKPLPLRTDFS
Description: as §1, §2

hSTING R293Q = molecular target: T3, hSTING R293Q (Homo sapiens, UniProt Q86WV6, H232R/R293Q); assay: THP1-Blue ISG hSTING KO reporter cells re-expressing hSTING R293Q; format: cell-based; conditions: R293Q variant cell line
T3 construct: expressed in transfected cells; host or cells: THP1-Blue ISG hSTING KO clone, retroviral MSCV-ires-GFP-Blasti
T3 sequence (Q86WV6 whole entry H232R/R293Q): as the sequence (Q86WV6 whole entry G230A/H232R/R293Q) above, with A230G counted along it
Description: as §1, §2

hSTING HAQ = molecular target: T4, hSTING HAQ (Homo sapiens, UniProt Q86WV6, G230A/H232R/R293Q/R71H); assay: THP1-Blue ISG hSTING KO reporter cells re-expressing hSTING HAQ; format: cell-based; conditions: HAQ variant cell line
T4 construct: expressed in transfected cells; host or cells: THP1-Blue ISG hSTING KO clone, retroviral MSCV-ires-GFP-Blasti
T4 sequence (Q86WV6 whole entry R71H/G230A/H232R/R293Q): as the sequence (Q86WV6 whole entry G230A/H232R/R293Q) above, with R71H counted along it
Description: as §1, §2

[1] = molecular target: Human STING (hSTING, residues 155-341, wild-type sequence) (Homo sapiens, UniProt Q86WV6, H232R); assay: hSTING binding by differential scanning fluorimetry (DSF); conditions: 100 μM test compound, 3 μM target protein, at least two Tm measurements averaged
Sequence of Human STING (hSTING, residues 155-341, wild-type sequence) (Q86WV6 155-341 H232R limits assumed): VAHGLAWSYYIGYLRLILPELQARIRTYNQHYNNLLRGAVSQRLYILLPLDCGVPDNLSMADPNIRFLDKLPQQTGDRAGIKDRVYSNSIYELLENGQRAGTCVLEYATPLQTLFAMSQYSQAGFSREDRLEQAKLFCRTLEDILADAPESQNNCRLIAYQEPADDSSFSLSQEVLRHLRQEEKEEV
Method: 3) 2 μl of this protein-dye-mixture (25×SYPRO Orange and 15 μM Protein) was added to 8 μl compound solution. Final volume was 10 μL. 4) Certain well positions were used as negative control. 5) The plates were prepared for duplicate measurement and centrifuged for 2 min at 1000 g. 6) In the measurement, 160 cycles of 0.5° C. were used (temperature ramp 15 s/cycle, 15° C. to 95° C.). Data analysis: The dissociation curves were processed in Bio-Rad CFX Manager. Peak type was set to “negative. At least two Tm measurements were averaged.

hSTING WT = molecular target: T5, hSTING WT (Homo sapiens, UniProt Q86WV6, H232R); assay: THP1-Blue ISG hSTING KO reporter cells re-expressing hSTING WT; format: cell-based; conditions: WT variant cell line
T5 construct: expressed in transfected cells; host or cells: THP1-Blue ISG hSTING KO clone, retroviral MSCV-ires-GFP-Blasti
T5 sequence (Q86WV6 whole entry H232R): as the sequence (Q86WV6 whole entry G230A/H232R/R293Q) above, with A230G, Q293R counted along it
Description: as §1, §2

[2] = molecular target: T6, human STING protein in THP1-Blue ISG cells (Homo sapiens, UniProt Q86WV6, G230A/H232R/R293Q/R71H); assay: In vitro cytokine induction, THP1-Blue ISG reporter cell assay (IRF-inducible SEAP); format: cell-based; conditions: 24 hours incubation, SEAP OD at 620 nm
T6 construct: endogenous STING levels form the parental, unmodified THP1-Blue ISG cell lines; endogenous in cells; host or cells: THP1-Blue ISG cells
T6 sequence (Q86WV6 whole entry R71H/G230A/H232R/R293Q): as the sequence (Q86WV6 whole entry G230A/H232R/R293Q) above, with R71H counted along it
Description: Activation of the STING protein expressed in THP1 cells results in an increase of interferon production. By the stable integration of an interferon regulatory factor (IRF)-inducible SEAP (secreted embryonic alkaline phosphatase) reporter construct the functional interferon signaling pathway can be monitored. Using Invivogen's QUANTI-Blue™ colorimetric enzyme assay and a suitable optical density (OD) reader the activity of SEAP can be detected and quantified. This technique could be used to characterize pharmacological modification of the STING protein.
Measurements of SEAP activity were performed in THP1-Blue ISG cells stably expressing the human STING protein and the IRF-inducible SEAP reporter construct. Cells were cultivated for expansion in RPMI1640 medium with 10% fetal calf serum, 50 μg/ml Penicillin-Streptomycin, 100 μg/ml Zeocin, and 100 μg/ml Normocin in a 37°, 95% humidity and 5% CO2 incubator. Assay-ready cells were stored as frozen stocks.
In preparation for the assay, the cells were thawed in Zeocin-/Normocin-free medium and were distributed into the assay plates with a density of 15000 cells/15 μL per well. […]
At the day of the assay, 75 μl per well of Quanti-Blue reagent was added to all wells of the plate and the plate was incubated another 30 minutes at 37° C. The OD at 620 nm was measured on the EnVision reader (PerkinElmer). […]

T1 sequence (Q86WV6 whole entry, stated change not applied): as the sequence (Q86WV6 whole entry G230A/H232R/R293Q) above, with A230G, R232H, Q293R counted along it

EC50 (hSTING R232H)	EC50 (hSTING AQ)	EC50 (hSTING R293Q)	EC50 (hSTING HAQ)	ΔTm at 100 µM ([1]; read-out: hSTING Tm shift)	EC50 (hSTING WT)	EC50 [2]	hSTING Tm shift [1]	SMILES
≤ 1000 nM	≤ 1000 nM	≤ 1000 nM	≤ 1000 nM	28.8 °C	≤ 1000 nM	250 nM		Nc1ncnc2c1ncn2[C@@H]1O[C@]23CO[C@@H]1[C@@H]2OP(=O)(S)OC[C@H]1O[C@@H](n2cnc4cncnc42)[C@H](F)[C@@H]1OP(=O)(S)OC3 (single isomer, unassigned) [Example 1.1, Cyclic (2′-F-2′-deoxynebularine-(3′→5′)-phosphorothioate-LNA-adenosine-(3′→5′)-phosphorothioate)]
						160 nM	19.8 °C	Nc1ncnc2c1ncn2[C@@H]1O[C@]23CO[C@@H]1[C@@H]2OP(=O)(S)OC[C@H]1O[C@@H](n2cnc4cncnc42)[C@H](F)[C@@H]1OP(=O)(S)OC3 (single isomer, unassigned) [Example 1.2, Cyclic (2′-F-2′-deoxynebularine-(3′→5′)-phosphorothioate-LNA-adenosine-(3′→5′)-phosphorothioate)]

— patent US20210024567A1, “MODIFIED CYCLIC DINUCLEOTIDE COMPOUNDS” (BOEHRINGER INGELHEIM INTERNATIONAL GMBH, priority 2018, published 2021)
